Biological target: T1, full length p110α/p85α (Homo sapiens, UniProt P42336)
T1 construct: Full-length human p110α was expressed either in a complex with full-length human p85α (for HTS, biochemistry and HDX-MS); 6xHis tag followed by TEV protease site (N); host or cells: Spodoptera frugiperda Sf9, baculovirus
Test: HDX-MS
Type: binding
Protocol: Sample preparation: HDX-MS experiments were carried out as described previously. […] In total, three biological replicates, i.e. three separate protein preparations, each with exchange experiments carried out in triplicate were conducted. Data presented in the manuscript is a single biological replicate. Data acquisition and analysis were as follows: Each sample was thawed and injected onto an M-Class Acquity UPLC with HDX Technology (Waters) kept at 0.1°C. Proteins were digested in-line using an Enzymate Pepsin Column (Waters, #186007233) at 15°C for 2 min at 200 μl/min. Peptic peptides were then eluted onto an Acquity UPLC BEH C18 Column (Waters, #186002346) equilibrated in Pepsin-A buffer (0.1% formic acid) and separated using a 5-35% gradient of Pepsin-B buffer (0.1% formic acid, 99% acetonitrile) over 7 min at a flowrate of 40 μl/min. Data were collected on a Waters Cyclic IMS, with an electrospray ionisation source, from 50-2000 m/z. Data were collected in the HDMS^E mode. A single pass of the cyclic IMS was conducted. A “blank” sample of protein dilution buffer with quench was run between samples, and carry-over of peptides was routinely monitored. Five replicates were used to identify non-deuterated peptides. Criteria used to include peptides in the HDX-MS dataset were: minimum intensity 5000, minimum sequence length 5, maximum sequence length 25, a minimum of 3 fragment ions, a minimum of 0.1 products per amino acid, a minimum score of 6.62, a maximum MH+ Error of 10 ppm, identification in at least two datasets with a retention time RSD of less than 10%. Data was analysed using Protein Lynx Global Server (Waters) and DynamX (Waters). All peptides were manually inspected for EX1 kinetics and sufficient quality of the peptide envelope. Data quality, experiment design, and reporting of data meets the criteria as determined by the HDX-MS community. Uptake files were created using Baryonyx. Data are available via ProteomeXchange with identifier PXD037721.

[1] = PK3CA_HUMAN peptide 177-186, time point 1 of 5
[2] = PK3CA_HUMAN peptide 177-186, time point 2 of 5
[3] = PK3CA_HUMAN peptide 177-186, time point 3 of 5
[4] = PK3CA_HUMAN peptide 177-186, time point 4 of 5
[5] = PK3CA_HUMAN peptide 177-186, time point 5 of 5
[6] = PK3CA_HUMAN peptide 186-202, time point 1 of 5
[7] = PK3CA_HUMAN peptide 186-202, time point 2 of 5
[8] = PK3CA_HUMAN peptide 186-202, time point 3 of 5
[9] = PK3CA_HUMAN peptide 186-202, time point 4 of 5
[10] = PK3CA_HUMAN peptide 186-202, time point 5 of 5
[11] = PK3CA_HUMAN peptide 207-219, time point 1 of 5
[12] = PK3CA_HUMAN peptide 207-219, time point 2 of 5
[13] = PK3CA_HUMAN peptide 207-219, time point 3 of 5
[14] = PK3CA_HUMAN peptide 207-219, time point 4 of 5
[15] = PK3CA_HUMAN peptide 207-219, time point 5 of 5
[16] = PK3CA_HUMAN peptide 220-237, time point 1 of 5
[17] = PK3CA_HUMAN peptide 220-237, time point 2 of 5
[18] = PK3CA_HUMAN peptide 220-237, time point 3 of 5
[19] = PK3CA_HUMAN peptide 220-237, time point 4 of 5
[20] = PK3CA_HUMAN peptide 220-237, time point 5 of 5
[21] = PK3CA_HUMAN peptide 224-238, time point 1 of 5
[22] = PK3CA_HUMAN peptide 224-238, time point 2 of 5
[23] = PK3CA_HUMAN peptide 224-238, time point 3 of 5
[24] = PK3CA_HUMAN peptide 224-238, time point 4 of 5
[25] = PK3CA_HUMAN peptide 224-238, time point 5 of 5
[26] = PK3CA_HUMAN peptide 238-250, time point 1 of 5
[27] = PK3CA_HUMAN peptide 238-250, time point 2 of 5
[28] = PK3CA_HUMAN peptide 238-250, time point 3 of 5
[29] = PK3CA_HUMAN peptide 238-250, time point 4 of 5
[30] = PK3CA_HUMAN peptide 238-250, time point 5 of 5
[31] = PK3CA_HUMAN peptide 238-259, time point 1 of 5
[32] = PK3CA_HUMAN peptide 238-259, time point 2 of 5
[33] = PK3CA_HUMAN peptide 238-259, time point 3 of 5
[34] = PK3CA_HUMAN peptide 238-259, time point 4 of 5
[35] = PK3CA_HUMAN peptide 238-259, time point 5 of 5
[36] = PK3CA_HUMAN peptide 241-250, time point 1 of 5
[37] = PK3CA_HUMAN peptide 241-250, time point 2 of 5

T1 sequence (P42336 whole entry): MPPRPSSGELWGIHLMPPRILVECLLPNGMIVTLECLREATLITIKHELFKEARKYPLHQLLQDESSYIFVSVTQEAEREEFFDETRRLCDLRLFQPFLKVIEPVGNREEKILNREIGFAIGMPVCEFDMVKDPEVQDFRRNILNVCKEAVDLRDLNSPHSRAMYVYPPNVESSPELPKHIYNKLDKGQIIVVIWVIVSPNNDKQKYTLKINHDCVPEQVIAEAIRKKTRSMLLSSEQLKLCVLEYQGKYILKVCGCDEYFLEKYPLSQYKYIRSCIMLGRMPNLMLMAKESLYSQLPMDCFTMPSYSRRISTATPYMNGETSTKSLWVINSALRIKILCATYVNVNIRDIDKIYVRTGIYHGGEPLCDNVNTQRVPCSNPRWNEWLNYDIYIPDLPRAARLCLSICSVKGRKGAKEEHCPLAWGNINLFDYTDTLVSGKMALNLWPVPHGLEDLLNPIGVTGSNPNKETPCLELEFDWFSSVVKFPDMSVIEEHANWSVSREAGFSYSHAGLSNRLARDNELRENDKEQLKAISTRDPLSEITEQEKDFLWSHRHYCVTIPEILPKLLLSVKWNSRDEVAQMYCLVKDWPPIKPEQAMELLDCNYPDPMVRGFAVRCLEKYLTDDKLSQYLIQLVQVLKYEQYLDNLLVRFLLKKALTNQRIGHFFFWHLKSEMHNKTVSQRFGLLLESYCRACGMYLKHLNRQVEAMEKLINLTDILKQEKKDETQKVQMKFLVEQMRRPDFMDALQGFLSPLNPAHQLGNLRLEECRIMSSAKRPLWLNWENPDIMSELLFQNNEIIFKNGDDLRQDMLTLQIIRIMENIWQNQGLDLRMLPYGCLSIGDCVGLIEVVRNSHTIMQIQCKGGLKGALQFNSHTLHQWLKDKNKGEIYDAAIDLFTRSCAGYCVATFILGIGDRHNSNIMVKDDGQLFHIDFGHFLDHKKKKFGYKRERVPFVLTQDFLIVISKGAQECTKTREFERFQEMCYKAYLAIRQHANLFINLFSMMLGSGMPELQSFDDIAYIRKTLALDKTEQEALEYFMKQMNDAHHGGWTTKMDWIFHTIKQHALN
T1 sequence (P27986 whole entry partner): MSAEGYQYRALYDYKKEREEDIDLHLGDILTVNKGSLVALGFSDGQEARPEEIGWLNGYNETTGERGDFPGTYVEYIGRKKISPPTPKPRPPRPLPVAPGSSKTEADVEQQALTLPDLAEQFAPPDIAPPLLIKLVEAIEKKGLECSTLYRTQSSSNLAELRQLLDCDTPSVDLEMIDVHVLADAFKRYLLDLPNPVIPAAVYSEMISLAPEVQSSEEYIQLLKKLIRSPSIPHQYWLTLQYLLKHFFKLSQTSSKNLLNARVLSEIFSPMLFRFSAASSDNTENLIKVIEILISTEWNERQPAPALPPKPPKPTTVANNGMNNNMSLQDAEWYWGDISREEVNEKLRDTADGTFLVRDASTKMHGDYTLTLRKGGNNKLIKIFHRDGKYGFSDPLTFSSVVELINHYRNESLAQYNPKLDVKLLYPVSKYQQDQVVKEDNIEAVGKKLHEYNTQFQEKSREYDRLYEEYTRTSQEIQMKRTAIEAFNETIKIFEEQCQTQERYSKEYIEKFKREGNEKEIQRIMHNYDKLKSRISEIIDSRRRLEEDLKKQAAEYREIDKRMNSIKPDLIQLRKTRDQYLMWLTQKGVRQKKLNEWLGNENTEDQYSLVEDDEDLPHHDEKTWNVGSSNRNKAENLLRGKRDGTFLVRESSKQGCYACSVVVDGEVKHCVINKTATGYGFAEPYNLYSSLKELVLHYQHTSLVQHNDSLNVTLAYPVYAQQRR

CCN1CCN(c2ccc(Nc3cc(Nc4cccc5c4N(C(C)=O)CC5)ccn3)cc2)CC1 [Compound 1938]
changes in HDX-MS protection of PI3Kα (250 μM 1938 or 5 μM BYL719): protection of a region in the C-terminus of the kinase domain consisting of amino acids (AA) 1002-1016 of p110α
HDX difference (%D) [1]: -1.1%
HDX difference (Da) [1]: -0.10 Da
HDX difference (%D) [2]: 0.188%
HDX difference (Da) [2]: 0.0169 Da
HDX difference (%D) [3]: 0.0654%
HDX difference (Da) [3]: 0.00589 Da
HDX difference (%D) [4]: -0.325%
HDX difference (Da) [4]: -0.03 Da
HDX difference (%D) [5]: -0.186%
HDX difference (Da) [5]: -0.0168 Da
HDX difference (%D) [6]: -0.741%
HDX difference (Da) [6]: -0.10 Da
HDX difference (%D) [7]: 0.268%
HDX difference (Da) [7]: 0.0349 Da
HDX difference (%D) [8]: 0.253%
HDX difference (Da) [8]: 0.0328 Da
HDX difference (%D) [9]: -0.11%
HDX difference (Da) [9]: -0.0143 Da
HDX difference (%D) [10]: -0.0482%
HDX difference (Da) [10]: -0.00626 Da
HDX difference (%D) [11]: -0.6%
HDX difference (Da) [11]: -0.07 Da
HDX difference (%D) [12]: 0.1%
HDX difference (Da) [12]: 0.0108 Da
HDX difference (%D) [13]: 0.0043%
HDX difference (Da) [13]: 0.000474 Da
HDX difference (%D) [14]: -0.136%
HDX difference (Da) [14]: -0.0149 Da
HDX difference (%D) [15]: -0.4%
HDX difference (Da) [15]: -0.0435 Da
HDX difference (%D) [16]: -0.3%
HDX difference (Da) [16]: -0.0451 Da
HDX difference (%D) [17]: 0.0936%
HDX difference (Da) [17]: 0.014 Da
HDX difference (%D) [18]: 0.319%
HDX difference (Da) [18]: 0.05 Da
HDX difference (%D) [19]: -0.0933%
HDX difference (Da) [19]: -0.014 Da
HDX difference (%D) [20]: -0.152%
HDX difference (Da) [20]: -0.0229 Da
HDX difference (%D) [21]: -0.8%
HDX difference (Da) [21]: -0.0951 Da
HDX difference (%D) [22]: 0.43%
HDX difference (Da) [22]: 0.05 Da
HDX difference (%D) [23]: 0.056%
HDX difference (Da) [23]: 0.00672 Da
HDX difference (%D) [24]: 0.37%
HDX difference (Da) [24]: 0.0444 Da
HDX difference (%D) [25]: 0.9%
HDX difference (Da) [25]: 0.11 Da
HDX difference (%D) [26]: -0.317%
HDX difference (Da) [26]: -0.038 Da
HDX difference (%D) [27]: 0.158%
HDX difference (Da) [27]: 0.019 Da
HDX difference (%D) [28]: 0.185%
HDX difference (Da) [28]: 0.0222 Da
HDX difference (%D) [29]: -0.357%
HDX difference (Da) [29]: -0.0429 Da
HDX difference (%D) [30]: 0.02%
HDX difference (Da) [30]: 0.00239 Da
HDX difference (%D) [31]: -0.7%
HDX difference (Da) [31]: -0.15 Da
HDX difference (%D) [32]: 0.262%
HDX difference (Da) [32]: 0.0549 Da
HDX difference (%D) [33]: 0.265%
HDX difference (Da) [33]: 0.0556 Da
HDX difference (%D) [34]: -0.134%
HDX difference (Da) [34]: -0.0282 Da
HDX difference (%D) [35]: -0.22%
HDX difference (Da) [35]: -0.0463 Da
HDX difference (%D) [36]: -0.43%
HDX difference (Da) [36]: -0.04 Da
HDX difference (%D) [37]: 0.2%
HDX difference (Da) [37]: 0.0181 Da

— publication PMC7614683, “A small molecule PI3Kα activator for cardioprotection and neuroregeneration” (Nature, 2023)
